# Experiments:
# [1] = test system: human hematopoietic CD34+ stem cells; test: Production of dendritic cells from human hematopoietic CD34+ stem cells, cell markers (Example 2); format: cell-based; details: TNF-α 2.5 ng/ml or RU 41740 6.25 ng/ml from D0 to D5
# Description: Purification: After Ficoll, the CD34+ represented 4.2% of the mononucleated cells (MNC).
# After purification by positive selection with the MAC System procedure (Miltenyi Biotec) with beads coated with an anti-CD34 antibody, 90% of the cells are CD34+.
# Culture Medium: RPMI containing 10% of FCS, 2% of penicillin/streptomycin, 1% of glutamine and 1% of sodium bicarbonate.
# Culture in 2 ml wells with 5×10^5 cells per well. from D0 to D5: […] at 25 ng/ml, GM-CSF at 100 ng/ml and either TNF-α at 2.5 ng/ml […]
# from D5 to D14: GM-CSF at 100 ng/ml
# Duplication of the Cultures: -the cells are homogenized in the well, then 1 ml sample is taken and deposited in a fresh well. 1 ml of culture medium is then added to the fresh well and the old one, as well as GM-CSF as a function of the medium added.
# A fluorescence-labelled anti-KLH primary antibody was used as control in order to be able to subtract the non-specific fluorescence of the signals obtained.
# [2] = test system: dendritic cells derived from human monocytes; test: Effect of LCOS 1013 on maturation of dendritic cells derived from human monocytes, phenotype by flow cytometry (Examples 11, 12); format: cell-based
# From the text: The purified monocytes (more than 90%) were placed in culture in RPMI medium containing 10% AB human serum in the presence of growth factors GM-CSF (200 U/ml) and IL-4 (500 U/ml) for 6 days in order to induce the differentiation of the monocytes into immature dendritic cells.
# The phenotype of the cells thus generated (after 8 days of culture) was examined by flow cytometry. The expression of the marker specific for maturation of the dendritic cells (CD83), of the co-stimulatory molecules CD80, CD86, CD40, of the adhesion molecule CD54, of the class II HLA-DR molecule of the major histocompatibility complex was analyzed. The expression of the CD1a molecule, specific marker of the Langerhans cells, immature dendritic cells, was also tested.
# [3] = Donor 1, TNF-α 200 U/ml or LCOS 1013 25 μg/ml for 48 hours
# [4] = Donor 2, TNF-α 200 U/ml or LCOS 1013 25 μg/ml for 48 hours
# [5] = Donor 3, TNF-α 200 U/ml or LCOS 1013 25 μg/ml for 48 hours
# [6] = Example 12, single donor, TNF-α 200 U/ml
substance,measurement,setting,value
TNF-α,"CD1a, percentage of cells expressing the marker",[1]; D8,8.7%
same,"CD14, percentage of cells expressing the marker",[1]; D8,40%
same,"CD34, percentage of cells expressing the marker",[1]; D8,0.7%
same,"CD40, percentage of cells expressing the marker",[1]; D8,44%
same,"CD45, percentage of cells expressing the marker",[1]; D8,96%
same,"CD54, percentage of cells expressing the marker",[1]; D8,33%
same,"CD83, percentage of cells expressing the marker",[1]; D8,0.5%
same,"CD86, percentage of cells expressing the marker",[1]; D8,13%
same,"HLA-DR, percentage of cells expressing the marker",[1]; D8,88%
same,"CD1a, percentage of cells expressing the marker",[1]; D12,8.4%
same,"CD14, percentage of cells expressing the marker",[1]; D12,63.2%
same,"CD40, percentage of cells expressing the marker",[1]; D12,64.3%
same,"CD54, percentage of cells expressing the marker",[1]; D12,61.8%
same,"CD80, percentage of cells expressing the marker",[1]; D12,5.3%
same,"CD83, percentage of cells expressing the marker",[1]; D12,1.3%
same,"CD86, percentage of cells expressing the marker",[1]; D12,7.4%
same,"HLA-DQ, percentage of cells expressing the marker",[1]; D12,54.1%
same,"HLA-DR, percentage of cells expressing the marker",[1]; D12,80.3%
same,"CD1a, percentage of cells expressing the marker",[1]; D14,10.3%
same,"CD14, percentage of cells expressing the marker",[1]; D14,54.1%
same,"CD83, percentage of cells expressing the marker",[1]; D14,0.8%
same,"CD86, percentage of cells expressing the marker",[1]; D14,2.2%
same,"HLA-DR, percentage of cells expressing the marker",[1]; D14,69.9%
same,"CD1a, MFI",[2]; [3],28
same,"CD1a, percentage of expression",[2]; [3],13.2%
same,"CD40, MFI",[2]; [3],(1084)
same,"CD40, percentage of expression",[2]; [3],99.4%
same,"CD54, MFI",[2]; [3],(195)
same,"CD54, percentage of expression",[2]; [3],98.4%
same,"CD80, MFI",[2]; [3],(85)
same,"CD80, percentage of expression",[2]; [3],69.7%
same,"CD83, MFI",[2]; [3],(132)
same,"CD83, percentage of expression",[2]; [3],91%
same,"CD86, MFI",[2]; [3],(209)
same,"CD86, percentage of expression",[2]; [3],99.5%
same,"HLA-DR, MFI",[2]; [3],(803)
same,"HLA-DR, percentage of expression",[2]; [3],99.5%
same,"CD1a, MFI",[2]; [4],215
same,"CD1a, percentage of expression",[2]; [4],20.6%
same,"CD40, MFI",[2]; [4],(1104)
same,"CD40, percentage of expression",[2]; [4],99.2%
same,"CD54, MFI",[2]; [4],(355)
same,"CD54, percentage of expression",[2]; [4],97.8%
same,"CD80, MFI",[2]; [4],(89)
same,"CD80, percentage of expression",[2]; [4],55.1%
same,"CD83, MFI",[2]; [4],(221)
same,"CD83, percentage of expression",[2]; [4],88%
same,"CD86, MFI",[2]; [4],(299)
same,"CD86, percentage of expression",[2]; [4],99.1%
same,"HLA-DR, MFI",[2]; [4],(1108)
same,"HLA-DR, percentage of expression",[2]; [4],98.6%
same,"CD1a, expression",[2]; [5],Neg.
same,"CD40, MFI",[2]; [5],(918)
same,"CD40, percentage of expression",[2]; [5],98.7%
same,"CD54, MFI",[2]; [5],(154)
same,"CD54, percentage of expression",[2]; [5],95.9%
same,"CD80, MFI",[2]; [5],(65)
same,"CD80, percentage of expression",[2]; [5],48.7%
same,"CD83, MFI",[2]; [5],(108)
same,"CD83, percentage of expression",[2]; [5],91.8%
same,"CD86, MFI",[2]; [5],(209)
same,"CD86, percentage of expression",[2]; [5],98.5%
same,"HLA-DR, MFI",[2]; [5],(768)
same,"HLA-DR, percentage of expression",[2]; [5],98.9%
same,"CD40, percentage of expression",[2]; [6],83.44%
same,"CD40, second line of cell (MFI)",[2]; [6],289.54
same,"CD54, percentage of expression",[2]; [6],87.12%
same,"CD54, second line of cell (MFI)",[2]; [6],137.49
same,"CD80, percentage of expression",[2]; [6],0.49%
same,"CD80, second line of cell (MFI)",[2]; [6],95.04
same,"CD83, percentage of expression",[2]; [6],70.02%
same,"CD83, second line of cell (MFI)",[2]; [6],65.55
same,"CD86, percentage of expression",[2]; [6],94.44%
same,"CD86, second line of cell (MFI)",[2]; [6],180.81
same,"HLA-DR, percentage of expression",[2]; [6],92.12%
same,"HLA-DR, second line of cell (MFI)",[2]; [6],877.54
